Where “and” joins values, the source holds several entries; their conditions need not be identical. Equal entries are not always repeated. Bounds are passed on as bounds.

5-hydroxytryptamine receptor 6, sequence (P50406 whole entry): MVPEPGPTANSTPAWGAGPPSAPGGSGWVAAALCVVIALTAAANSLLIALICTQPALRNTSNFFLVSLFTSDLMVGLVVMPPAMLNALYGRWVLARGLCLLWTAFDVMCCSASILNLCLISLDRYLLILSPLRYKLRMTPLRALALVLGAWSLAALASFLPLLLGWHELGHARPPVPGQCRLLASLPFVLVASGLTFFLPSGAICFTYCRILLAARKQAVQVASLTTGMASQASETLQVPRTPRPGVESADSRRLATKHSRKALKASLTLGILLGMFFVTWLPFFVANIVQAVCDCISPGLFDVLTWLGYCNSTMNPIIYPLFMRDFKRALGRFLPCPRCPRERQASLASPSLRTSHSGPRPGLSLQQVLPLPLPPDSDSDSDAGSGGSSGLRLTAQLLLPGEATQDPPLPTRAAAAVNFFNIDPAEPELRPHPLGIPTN

For this experiment, the target named is 5-hydroxytryptamine receptor 6 (Homo sapiens, UniProt P50406). The experiment is described as follows: Radioligand Binding Assay. The source says:
Radioligand binding assay using 5-HT6R.
Molecule `CNc1nc2c(S(=O)(=O)c3ccccc3)nnn2c2ccccc12` [PSTQ Analog, 3{1,2}] yielded an IC50 greater than 300 nM.
As for `CC(C)Nc1nc2c(S(=O)(=O)c3ccccc3)nnn2c2ccccc12` [PSTQ Analog, 3{1,3}], the IC50 is 107 nM and the Ki was 49.5 nM.
The matching figures for `CCC(C)Nc1nc2c(S(=O)(=O)c3ccccc3)nnn2c2ccccc12` (stereo not drawn) [PSTQ Analog, 3{1,4}]: 15.2 nM and 7.04 nM.
With `O=S(=O)(c1ccccc1)c1nnn2c1nc(NCc1ccccc1)c1ccccc12` [PSTQ Analog, 3{1,12}], the IC50 was 381 nM.
The same measure, in the same setting: in the case of `O=S(=O)(c1ccccc1)c1nnn2c1nc(NCc1ccccc1Cl)c1ccccc12` [PSTQ Analog, 3{1,13}] it was 128 nM.
`O=S(=O)(c1ccccc1)c1nnn2c1nc(NCC1CCCO1)c1ccccc12` (stereo not drawn) [PSTQ Analog, 3{1,21}]: the IC50 is 75.4 nM and 28.4 nM; the Ki came to 13.2 nM.
Consider `O=S(=O)(c1ccccc1)c1nnn2c1nc(NCc1ccco1)c1ccccc12` [PSTQ Analog, 3{1,22}], for which affinity was put at a Ki of 3.54 nM.
For the molecule `O=S(=O)(c1ccccc1)c1nnn2c1nc(NCc1cccnc1)c1ccccc12` [PSTQ Analog, 3{1,23}], the IC50 was determined as 983 nM.
`O=S(=O)(c1ccccc1)c1nnn2c1nc(NC1CCCC1)c1ccccc12` [PSTQ Analog, 3{1,25}] gave a Ki of 12.9 nM. In other words, the double-digit nanomolar range.
As to `O=S(=O)(c1ccccc1)c1nnn2c1nc(NC1CCCCC1)c1ccccc12` [PSTQ Analog, 3{1,26}], the IC50 amounted to 10.8 nM and the Ki was found to be 5.01 nM.
The matching figures for `CC1CCCCC1Nc1nc2c(S(=O)(=O)c3ccccc3)nnn2c2ccccc12` (stereo not drawn) [PSTQ Analog, 3{1,27}]: 6.17 nM and 2.86 nM.
`CC1CCC(Nc2nc3c(S(=O)(=O)c4ccccc4)nnn3c3ccccc23)CC1` (stereo not drawn) [PSTQ Analog, 3{1,28}] gave an IC50 of 59.5 nM and a Ki of 27.6 nM.
Molecule `CN(C)c1nc2c(S(=O)(=O)c3ccccc3)nnn2c2ccccc12` [PSTQ Analog, 3{1,40}] displayed an IC50 greater than 30 nM.
For the molecule `CN(C)CCN(C)c1nc2c(S(=O)(=O)c3ccccc3)nnn2c2ccccc12` [PSTQ Analog, 3{1,42}], the IC50 is greater than 30 nM.
As to `CN(Cc1ccccc1)c1nc2c(S(=O)(=O)c3ccccc3)nnn2c2ccccc12` [PSTQ Analog, 3{1,43}], the Ki came to 7.65 nM.
Molecule `CCN(Cc1ccccc1)c1nc2c(S(=O)(=O)c3ccccc3)nnn2c2ccccc12` [PSTQ Analog, 3{1,44}] yielded an IC50 of 164 nM. That is a sub-micromolar value.
With `CC1CCCCN1c1nc2c(S(=O)(=O)c3ccccc3)nnn2c2ccccc12` (stereo not drawn) [PSTQ Analog, 3{1,49}], the IC50 is 42.1 nM and the inhibition constant Ki stood at 19.5 nM.
The molecule `Cc1ccc(S(=O)(=O)c2nnn3c2nc(NCC(C)c2ccccc2)c2ccccc23)cc1` (stereo not drawn) [PSTQ Analog, 3{2,10}] gave an IC50 of 606 nM. This counts as sub-micromolar.
On the same count and under the same terms, in the case of `Cc1ccc(S(=O)(=O)c2nnn3c2nc(NCc2ccccc2)c2ccccc23)cc1` [PSTQ Analog, 3{2,12}] it was 320 nM.
The same measure, in the same setting: in the case of `Cc1ccc(S(=O)(=O)c2nnn3c2nc(NCc2ccccc2Cl)c2ccccc23)cc1` [PSTQ Analog, 3{2,13}] it was 528 nM.
Still for that read-out and setting: next, `Cc1ccc(S(=O)(=O)c2nnn3c2nc(NC(C)c2ccccc2)c2ccccc23)cc1` (stereo not drawn) [PSTQ Analog, 3{2,20}]: 740 nM; `Cc1ccc(S(=O)(=O)c2nnn3c2nc(NCC2CCCO2)c2ccccc23)cc1` (stereo not drawn) [PSTQ Analog, 3{2,21}]: 1480 nM; `CCc1ccc(S(=O)(=O)c2nnn3c2nc(NC2CCCCC2C)c2ccccc23)cc1` (stereo not drawn) [PSTQ Analog, 3{3,27}]: 572 nM.
`CC(Nc1nc2c(S(=O)(=O)c3ccc(Cl)cc3)nnn2c2ccccc12)c1ccccc1` (stereo not drawn) [PSTQ Analog, 3{6,20}]: the IC50 was 628 nM.
For `CCc1ccccc1Nc1nc2c(S(=O)(=O)c3ccc(Br)cc3)nnn2c2ccccc12` [PSTQ Analog, 3{7,31}], the IC50 came to 1430 nM.
Take `Cc1cccc(Nc2nc3c(S(=O)(=O)c4ccc(Br)cc4)nnn3c3ccccc23)c1C` [PSTQ Analog, 3{7,37}]: the IC50 came out at 704 nM.
On to `CCC(C)Nc1nc2c(S(=O)(=O)c3cc(C)ccc3C)nnn2c2ccccc12` (stereo not drawn) [PSTQ Analog, 3{8,4}], for which the IC50 came to 35.9 nM and the affinity, expressed as Ki, was 16.7 nM.
`CCc1ccccc1Nc1nc2c(S(=O)(=O)c3cc(C)ccc3C)nnn2c2ccccc12` [PSTQ Analog, 3{8,31}] had an IC50 of 770 nM.
The same measure, in the same setting: next, `Cc1ccc(S(=O)(=O)c2nnn3c2nc(NCCc2ccccc2)c2ccccc23)cc1C` [PSTQ Analog, 3{9,9}]: 2010 nM; `Cc1ccc(S(=O)(=O)c2nnn3c2nc(NCc2ccccc2C)c2ccccc23)cc1C` [PSTQ Analog, 3{9,13}]: 602 nM.
Turning to `Cc1ccc(S(=O)(=O)c2nnn3c2nc(NC(C)c2ccccc2)c2ccccc23)cc1C` (stereo not drawn) [PSTQ Analog, 3{9,20}], the IC50 came out at 356 nM. Compared with the last molecule, the IC50 is about 1.7-fold lower.
Take `Cc1ccc(S(=O)(=O)c2nnn3c2nc(NCC2CCCO2)c2ccccc23)cc1C` (stereo not drawn) [PSTQ Analog, 3{9,21}]: the IC50 came out at 779 nM.
Same read-out and setting: next, `CCc1ccccc1Nc1nc2c(S(=O)(=O)c3ccc(C)c(C)c3)nnn2c2ccccc12` [PSTQ Analog, 3{9,31}]: 295 nM.
`CCN(Cc1ccccc1)c1nc2c(S(=O)(=O)c3ccc(C)c(C)c3)nnn2c2ccccc12` [PSTQ Analog, 3{9,44}] registered a concentration for half-maximal inhibition (IC50) of 971 nM.
Still for that read-out and setting: in the case of `Cc1ccc(S(=O)(=O)c2nnn3c2nc(N2CCCCCC2)c2ccccc23)cc1C` [PSTQ Analog, 3{9,53}] it was 1310 nM; in that of `Cc1ccc(S(=O)(=O)c2nnn3c2nc(N2CCN(c4ccccn4)CC2)c2ccccc23)cc1C` [PSTQ Analog, 3{9,58}], 1200 nM; in that of `Cc1cc(C)c(S(=O)(=O)c2nnn3c2nc(NC(C)C)c2ccccc23)c(C)c1` [PSTQ Analog, 3{10,3}], 2180 nM.
Still for that read-out and setting: next, `CCC(C)Nc1nc2c(S(=O)(=O)c3c(C)cc(C)cc3C)nnn2c2ccccc12` (stereo not drawn) [PSTQ Analog, 3{10,4}]: 964 nM; `Cc1cc(C)c(S(=O)(=O)c2nnn3c2nc(NCC2CCCO2)c2ccccc23)c(C)c1` (stereo not drawn) [PSTQ Analog, 3{10,21}]: 1460 nM; `Cc1cccc(Nc2nc3c(S(=O)(=O)c4c(C)cc(C)cc4C)nnn3c3ccccc23)c1` [PSTQ Analog, 3{10,32}]: 1000 nM.
On the same count and under the same terms, in the case of `COc1cccc(Nc2nc3c(S(=O)(=O)c4c(C)cc(C)cc4C)nnn3c3ccccc23)c1` [PSTQ Analog, 3{10,33}] it was 670 nM; in that of `O=S(=O)(c1ccccc1)c1nnn2c1nc(NCC1CCCO1)c1cc(Cl)ccc12` (stereo not drawn) [PSTQ Analog, 3{12,21}], 1800 nM; in that of `O=S(=O)(c1ccccc1)c1nnn2c1ncc1ccccc12` [PSTQ Analog, 8], 5740 nM.
On to `CCSc1nc2c(S(=O)(=O)c3ccccc3)nnn2c2ccccc12` [PSTQ Analog, 9], for which the IC50 stood at 1050 nM. Compared with the last molecule, the IC50 is about 5.5-fold lower.
Still for that read-out and setting: next, `COCCOc1nc2c(S(=O)(=O)c3ccccc3)nnn2c2ccccc12` [PSTQ Analog, 10]: 1370 nM.

Values taken from BindingDB's records for doi:10.1021/cc1000049 (Chemical Diversity Research Institute, 2010).
